Reference: article PMC8160875 (Molecules, 2021)

How the values were obtained:
[1] = test system: LO2 cells; test: MTT cytotoxicity assay, normal cell line LO2; format: cell-based, human; conditions: for IC50: L02, human normal cell line LO2, MTT, average of three determinations; for Selectivity IC50(LO2)/IC50(A549): ratio IC50(LO2)/IC50(A549)
From the text: (§1) Four human tumor cell lines (A549, H1975, NCI-H460, and MCF-7) and human normal cell line LO2 were selected to evaluate the antiproliferative activity of all target compounds in vitro. Olmutinib was used as a positive control. Results are summarized in Table 1, where the values are the average of at least three independent experiments. […] However, the antiproliferative activities of the compounds that were substituted with the anisidine side chain performed better than the cyano group chain.

[2] = test system: A549 cells; test: MTT cytotoxicity assay, A549; format: cell-based; conditions: Homo sapiens, A549 cell line, average of three determinations
From the text: as §1

[3] = test system: H1975 cells; test: MTT cytotoxicity assay, H1975; format: cell-based; conditions: Homo sapiens, NCI-H1975, H1975 cell line, average of three determinations
From the text: as §1

[4] = test system: NCI-H460 cells; test: MTT cytotoxicity assay, NCI-H460; format: cell-based; conditions: Homo sapiens, NCI-H460 cell line, average of three determinations
From the text: as §1

[5] = test system: MCF-7 cells; test: MTT cytotoxicity assay, MCF-7; format: cell-based; conditions: Homo sapiens, MCF7, MCF-7 cell line, average of three determinations
From the text: as §1

[6] = test system: H1975 (EGFR^L858R/T790M) cells; conditions: quoted in the introduction; read-out: IC50 against H1975 (EGFR^L858R/T790M) cells; cited from earlier work
[7] = test system: A549 (EGFR^WT) cells; conditions: quoted in the introduction; read-out: IC50 against A549 (EGFR^WT) cells; cited from earlier work
[8] = test system: HCC827 (EGFR^dell19) cells; conditions: quoted in the introduction; read-out: IC50 against HCC827 (EGFR^dell19) cells; cited from earlier work
[9] = molecular target: PI3Kα (Homo sapiens, UniProt P42336); test: Kinase-Glo Luminescent Kinase Assay, PI3Kα; format: biochemical; conditions: average of three determinations
Procedure: Compounds H7 and H10 had excellent antiproliferative activity and were further screened out for kinase inhibition testing. We evaluated compounds H7 and H10 with EGFR^T790M/L858R kinases and PI3Kα kinases.
The specific operation was carried out according to our previous research.

[10] = quoted in the introduction; cited from earlier work
[11] = molecular target: EGFR^T790M/L858R (Homo sapiens, UniProt P00533, L858R/T790M); test: Kinase-Glo Luminescent Kinase Assay, EGFR T790M/L858R; format: biochemical; conditions: average of three determinations
EGFR^T790M/L858R, sequence (P00533 25-1210 T790M/L858R): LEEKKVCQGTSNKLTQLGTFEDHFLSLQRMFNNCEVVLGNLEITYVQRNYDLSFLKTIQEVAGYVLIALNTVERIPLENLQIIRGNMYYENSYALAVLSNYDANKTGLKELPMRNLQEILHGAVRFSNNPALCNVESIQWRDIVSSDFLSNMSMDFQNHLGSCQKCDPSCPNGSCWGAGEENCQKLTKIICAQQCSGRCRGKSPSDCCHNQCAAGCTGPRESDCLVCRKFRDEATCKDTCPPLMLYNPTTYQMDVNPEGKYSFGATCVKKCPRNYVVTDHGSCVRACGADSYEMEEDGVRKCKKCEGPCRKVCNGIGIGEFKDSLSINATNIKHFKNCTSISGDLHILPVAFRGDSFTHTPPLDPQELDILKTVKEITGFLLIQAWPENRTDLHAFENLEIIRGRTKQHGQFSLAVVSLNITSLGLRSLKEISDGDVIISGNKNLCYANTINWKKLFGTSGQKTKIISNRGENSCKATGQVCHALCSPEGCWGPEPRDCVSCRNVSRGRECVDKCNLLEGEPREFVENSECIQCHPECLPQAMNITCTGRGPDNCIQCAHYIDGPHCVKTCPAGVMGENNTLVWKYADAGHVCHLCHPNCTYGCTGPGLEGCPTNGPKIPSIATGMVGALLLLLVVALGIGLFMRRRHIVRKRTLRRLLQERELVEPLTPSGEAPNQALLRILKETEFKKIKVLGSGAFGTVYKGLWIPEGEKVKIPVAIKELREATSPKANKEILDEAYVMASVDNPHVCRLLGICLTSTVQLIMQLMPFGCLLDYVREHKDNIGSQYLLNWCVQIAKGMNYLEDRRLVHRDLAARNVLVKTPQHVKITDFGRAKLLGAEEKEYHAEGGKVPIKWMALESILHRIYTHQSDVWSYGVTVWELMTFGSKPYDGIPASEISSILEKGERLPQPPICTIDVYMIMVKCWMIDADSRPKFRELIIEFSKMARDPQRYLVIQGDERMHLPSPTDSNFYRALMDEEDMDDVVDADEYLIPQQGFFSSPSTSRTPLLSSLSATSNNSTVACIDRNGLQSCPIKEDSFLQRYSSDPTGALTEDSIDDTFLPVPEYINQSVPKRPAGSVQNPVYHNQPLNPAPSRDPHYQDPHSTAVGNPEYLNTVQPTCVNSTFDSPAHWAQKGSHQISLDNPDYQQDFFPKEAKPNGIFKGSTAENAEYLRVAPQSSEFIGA

PI3Kα, sequence (P42336 whole entry): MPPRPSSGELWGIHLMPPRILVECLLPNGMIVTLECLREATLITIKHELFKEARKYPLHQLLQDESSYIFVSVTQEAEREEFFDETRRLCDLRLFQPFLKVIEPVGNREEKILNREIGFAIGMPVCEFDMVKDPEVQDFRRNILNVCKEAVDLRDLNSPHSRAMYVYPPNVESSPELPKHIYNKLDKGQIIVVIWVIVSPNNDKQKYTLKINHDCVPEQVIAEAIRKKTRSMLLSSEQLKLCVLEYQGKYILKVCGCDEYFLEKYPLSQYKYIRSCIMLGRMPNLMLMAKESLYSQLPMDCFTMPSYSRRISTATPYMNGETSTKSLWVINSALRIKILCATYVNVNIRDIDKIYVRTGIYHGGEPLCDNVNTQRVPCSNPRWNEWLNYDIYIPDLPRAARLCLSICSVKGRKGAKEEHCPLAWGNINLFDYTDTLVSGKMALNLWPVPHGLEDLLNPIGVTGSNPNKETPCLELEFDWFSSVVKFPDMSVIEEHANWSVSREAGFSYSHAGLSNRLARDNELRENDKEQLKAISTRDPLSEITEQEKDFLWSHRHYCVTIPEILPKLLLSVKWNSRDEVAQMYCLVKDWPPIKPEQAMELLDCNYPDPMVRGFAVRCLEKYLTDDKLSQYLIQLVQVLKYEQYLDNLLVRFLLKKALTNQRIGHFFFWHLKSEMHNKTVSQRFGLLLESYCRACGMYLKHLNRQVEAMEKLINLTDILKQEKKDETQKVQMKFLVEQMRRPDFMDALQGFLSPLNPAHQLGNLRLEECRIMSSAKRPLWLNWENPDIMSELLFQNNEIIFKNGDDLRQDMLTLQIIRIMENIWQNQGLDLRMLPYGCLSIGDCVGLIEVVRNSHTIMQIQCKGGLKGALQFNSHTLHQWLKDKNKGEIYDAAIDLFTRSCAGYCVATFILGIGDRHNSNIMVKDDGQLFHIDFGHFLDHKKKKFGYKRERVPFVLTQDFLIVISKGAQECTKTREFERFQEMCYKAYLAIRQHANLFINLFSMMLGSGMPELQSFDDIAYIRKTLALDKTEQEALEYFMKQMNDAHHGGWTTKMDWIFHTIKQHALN
PI3Kα, sequence (P27986 whole entry partner): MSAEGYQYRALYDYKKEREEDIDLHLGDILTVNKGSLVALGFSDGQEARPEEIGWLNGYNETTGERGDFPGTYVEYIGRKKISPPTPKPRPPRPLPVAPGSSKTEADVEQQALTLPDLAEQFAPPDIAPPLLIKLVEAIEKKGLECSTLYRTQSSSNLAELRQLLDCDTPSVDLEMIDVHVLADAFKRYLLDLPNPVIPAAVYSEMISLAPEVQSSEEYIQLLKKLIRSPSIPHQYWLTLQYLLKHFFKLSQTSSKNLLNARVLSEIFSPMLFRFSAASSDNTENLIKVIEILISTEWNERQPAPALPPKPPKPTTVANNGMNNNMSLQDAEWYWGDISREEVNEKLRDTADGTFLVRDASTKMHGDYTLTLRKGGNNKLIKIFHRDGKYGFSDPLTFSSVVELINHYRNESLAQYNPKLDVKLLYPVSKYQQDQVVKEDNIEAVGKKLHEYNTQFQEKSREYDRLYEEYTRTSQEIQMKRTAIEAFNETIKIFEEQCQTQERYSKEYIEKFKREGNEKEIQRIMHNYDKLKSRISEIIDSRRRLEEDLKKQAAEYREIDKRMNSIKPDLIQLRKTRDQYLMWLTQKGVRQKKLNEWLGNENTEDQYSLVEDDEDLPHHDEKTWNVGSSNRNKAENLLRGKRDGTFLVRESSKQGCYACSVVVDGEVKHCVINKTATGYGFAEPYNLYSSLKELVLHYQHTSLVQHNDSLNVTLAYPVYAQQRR

SMILES | IC50 [1] [µM] | Selectivity IC50(LO2)/IC50(A549) [1] | IC50 [2] [µM] | IC50 [3] [µM] | IC50 [4] [µM] | IC50 [5] [µM] | IC50 [6] [µM] | IC50 [7] [µM] | IC50 [8] [µM] | IC50 [9] [µM] | toxic side effects [10] | IC50 [11] [µM] | Selectivity (A549 vs LO2) relative to that of olmutinib ([1]; fold of the selectivity of the lead compound olmutinib) | melting point [°C]
C=CC(=O)Nc1cccc(Oc2cc(-c3cccs3)nc(Nc3cccc(C#N)c3)n2)c1 [Compound H1, N-(3-((2-((3-cyanophenyl)amino)-6-(thiophen-2-yl)pyrimidin-4-yl)oxy)phenyl)acrylamide] | > 100 | >22.57 | 4.43 ± 0.5 | 9.64 ± 1.01 | 13.1 ± 1.17 | 19 ± 1.71 | – | – | – | – | – | – | – | –
C=CC(=O)Nc1cccc(Oc2nc(Nc3ccc(N4CCN(C)CC4)cc3)nc3ccsc23)c1 [Olmutinib, olmutinib, reference compound] | 25.8 ± 1.31 | – | 4.29 ± 0.21 | 0.52 ± 0.1 | 5.29 ± 0.59 | 26.9 ± 0.93 | 0.01 | 0.225 | 0.0092 | > 10 | palmoplantar keratoderma and diarrhea | – | – | –
C/C=C/C(=O)Nc1cccc(Oc2nc(-c3ccc(CN(C)C)s3)nc(N3CCOCC3)n2)c1 [Compound H10, (E)-N-(3-((4-(5-((dimethylamino)methyl)thiophen-2-yl)-6-morpholino-1,3,5-triazin-2-yl)oxy)phenyl)but-2-enamide] | > 100 | >29.76 | 3.36 ± 1.59 | 1.16 ± 1.53 | 10.7 ± 2.02 | 13.1 ± 1.36 | – | – | – | 8.56 | – | 0.25 | about 5 times | 202.4 to 203.7
C/C=C/C(=O)Nc1cccc(Oc2cc(-c3cccs3)nc(Nc3cccc(OC)c3)n2)c1 [Compound H7, (E)-N-(3-((2-((3-methoxyphenyl)amino)-6-(thiophen-2-yl)pyrimidin-4-yl)oxy)phenyl)but-2-enamide] | > 100 | >22.88 | 4.37 ± 0.5 | 4.59 ± 0.46 | 13.5 ± 0.52 | 19.2 ± 1.12 | – | – | – | > 10 | – | 0.63 | – | 231.7 to 234.3
C/C=C/C(=O)Nc1cccc(Oc2nc(-c3ccc(CN(CC)CC)s3)nc(N3CCOCC3)n2)c1 [Compound H14, (E)-N-(3-((4-(5-((diethylamino)methyl)thiophen-2-yl)-6-morpholino-1,3,5-triazin-2-yl)oxy)phenyl)but-2-enamide] | > 100 | – | 20.6 ± 2.3 | 17.8 ± 1.34 | 46.2 ± 1.43 | 41.6 ± 1.61 | – | – | – | – | – | – | – | –
CCN(CC)Cc1ccc(-c2nc(Oc3cccc(NC(=O)C=C(C)C)c3)nc(N3CCOCC3)n2)s1 [Compound H15, N-(3-((4-(5-((diethylamino)methyl)thiophen-2-yl)-6-morpholino-1,3,5-triazin-2-yl)oxy)phenyl)-3-methylbut-2-enamide] | > 100 | >4.68 | 21.4 ± 1.58 | 19.5 ± 1.55 | 62.4 ± 2.94 | 38.5 ± 1.78 | – | – | – | – | – | – | – | 215.2 to 217.1
C=CC(=O)Nc1cccc(Oc2nc(-c3ccc(CN(C)C)s3)nc(N3CCOCC3)n2)c1 [Compound H9, N-(3-((4-(5-((dimethylamino)methyl)thiophen-2-yl)-6-morpholino-1,3,5-triazin-2-yl)oxy)phenyl)acrylamide] | > 100 | – | 23.5 ± 1.43 | 12.8 ± 1.25 | 28.2 ± 1.78 | 53.9 ± 1.73 | – | – | – | – | – | – | – | –
C/C=C/C(=O)Nc1cccc(Oc2cc(-c3cccs3)nc(Nc3cccc(C#N)c3)n2)c1 [Compound H2, (E)-N-(3-((2-((3-cyanophenyl)amino)-6-(thiophen-2-yl)pyrimidin-4-yl)oxy)phenyl)but-2-enamide] | 87.9 ± 1.67 | 8.38 | 10.5 ± 1.17 | 12.5 ± 1.09 | 16.4 ± 0.98 | 14.6 ± 1.19 | – | – | – | – | – | – | – | 201.2 to 205.9
CC(C)/C=C/C(=O)Nc1cccc(Oc2cc(-c3cccs3)nc(Nc3cccc(C#N)c3)n2)c1 [Compound H6, (E)-N-(3-((2-((3-cyanophenyl)amino)-6-(thiophen-2-yl)pyrimidin-4-yl)oxy)phenyl)-4-methylpent-2-enamide] | > 100 | >6.43 | 15.6 ± 0.81 | 11.9 ± 1.11 | 18.1 ± 0.71 | 17.7 ± 1.01 | – | – | – | – | – | – | – | 223.1 to 225.4
CC(C)/C=C/C(=O)Nc1cccc(Oc2nc(-c3ccc(CN(C)C)s3)nc(N3CCOCC3)n2)c1 [Compound H12, (E)-N-(3-((4-(5-((dimethylamino)methyl)thiophen-2-yl)-6-morpholino-1,3,5-triazin-2-yl)oxy)phenyl)-4-methylpent-2-enamide] | > 100 | >4.57 | 21.9 ± 1.54 | 13.6 ± 1.94 | 23.8 ± 2.05 | 64 ± 1.8 | – | – | – | – | – | – | – | 199.7 to 201.3
CC(C)=CC(=O)Nc1cccc(Oc2nc(-c3ccc(CN(C)C)s3)nc(N3CCOCC3)n2)c1 [Compound H11, N-(3-((4-(5-((dimethylamino)methyl)thiophen-2-yl)-6-morpholino-1,3,5-triazin-2-yl)oxy)phenyl)-3-methylbut-2-enamide] | > 100 | >7.39 | 13.5 ± 1.13 | 5.57 ± 1.53 | 19.7 ± 1.16 | 25.8 ± 1.31 | – | – | – | – | – | – | – | –
C=C(F)C(=O)Nc1cccc(Oc2cc(-c3cccs3)nc(Nc3cccc(C#N)c3)n2)c1 [Compound H5, N-(3-((2-((3-cyanophenyl)amino)-6-(thiophen-2-yl)pyrimidin-4-yl)oxy)phenyl)-2-fluoroacrylamide] | > 100 | – | > 100 | > 100 | > 100 | > 100 | – | – | – | – | – | – | – | 222.9 to 226.8
CCN(CC)Cc1ccc(-c2nc(Oc3cccc(NC(=O)/C=C/C(C)C)c3)nc(N3CCOCC3)n2)s1 [Compound H16, (E)-N-(3-((4-(5-((diethylamino)methyl)thiophen-2-yl)-6-morpholino-1,3,5-triazin-2-yl)oxy)phenyl)-4-methylpent-2-enamide] | > 100 | >2.77 | 36.1 ± 1.61 | 15.6 ± 2.55 | 30.3 ± 1.68 | 51.8 ± 1.27 | – | – | – | – | – | – | – | –
CC(C)=CC(=O)Nc1cccc(Oc2cc(-c3cccs3)nc(Nc3cccc(C#N)c3)n2)c1 [Compound H3, N-(3-((2-((3-cyanophenyl)amino)-6-(thiophen-2-yl)pyrimidin-4-yl)oxy)phenyl)-3-methylbut-2-enamide] | > 100 | >3.61 | 27.7 ± 1.24 | 21.9 ± 1.33 | 25.8 ± 1.38 | 35.8 ± 1.64 | – | – | – | – | – | – | – | 215.5 to 218.7
CCC/C=C/C(=O)Nc1cccc(Oc2cc(-c3cccs3)nc(Nc3cccc(C#N)c3)n2)c1 [Compound H4, (E)-N-(3-((2-((3-cyanophenyl)amino)-6-(thiophen-2-yl)pyrimidin-4-yl)oxy)phenyl)hex-2-enamide] | > 100 | >2.70 | 37.1 ± 1.19 | 25.1 ± 1.3 | 23.4 ± 1.49 | 27 ± 1.63 | – | – | – | – | – | – | – | 209.6 to 211.4
C=C(C)C(=O)Nc1cccc(Oc2nc(-c3ccc(CN(CC)CC)s3)nc(N3CCOCC3)n2)c1 [Compound H13, N-(3-((4-(5-((diethylamino)methyl)thiophen-2-yl)-6-morpholino-1,3,5-triazin-2-yl)oxy)phenyl)methacrylamide] | > 100 | – | 23.4 ± 1.89 | 21.5 ± 1.21 | 54.5 ± 2.86 | 32.5 ± 1.73 | – | – | – | – | – | – | – | –
COc1cccc(Nc2nc(Oc3cccc(NC(=O)/C=C/C(C)C)c3)cc(-c3cccs3)n2)c1 [Compound H8, (E)-N-(3-((2-((3-methoxyphenyl)amino)-6-(thiophen-2-yl)pyrimidin-4-yl)oxy)phenyl)-4-methylpent-2-enamide] | > 100 | >5.26 | 19 ± 1.34 | 21.5 ± 1.21 | 24.1 ± 1.28 | 49.1 ± 2.13 | – | – | – | – | – | – | – | 217.9 to 219.1
